Data taken from article PMC10349806 (Nature Communications, 2023).
Where “and” joins values, the source holds several entries; their conditions need not be identical. Identical values can stand only once.

Target: T1, PfCRT variant E232A (Plasmodium falciparum, UniProt Q9N623, A220S/E232A/I356T/K76T/M74I/N326S/N75E/Q271E/R371I)
T1 sequence (Q9N623 1-424 M74I/N75E/K76T/A220S/E232A/Q271E/N326S/I356T/R371I): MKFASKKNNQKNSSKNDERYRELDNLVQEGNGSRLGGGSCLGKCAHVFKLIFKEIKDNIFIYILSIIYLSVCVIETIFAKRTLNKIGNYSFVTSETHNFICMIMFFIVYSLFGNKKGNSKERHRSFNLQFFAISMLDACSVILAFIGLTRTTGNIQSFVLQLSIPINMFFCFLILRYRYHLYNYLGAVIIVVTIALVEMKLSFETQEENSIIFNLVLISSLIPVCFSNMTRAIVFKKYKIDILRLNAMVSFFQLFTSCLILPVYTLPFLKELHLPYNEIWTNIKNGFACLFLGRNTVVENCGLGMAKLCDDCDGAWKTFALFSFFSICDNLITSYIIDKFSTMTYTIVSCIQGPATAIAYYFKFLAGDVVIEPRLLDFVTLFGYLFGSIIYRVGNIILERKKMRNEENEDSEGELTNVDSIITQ
Assay: CQ uptake assay, oocytes expressing E232A
Format: cell-based
Protocol: Site-directed mutagenesis of PfCRT^Dd2 was performed as described using the megaprimer method with overlap extension[21],[54]. The primer pairs used are listed in Supplementary Table 6. Please note that a codon-optimized and oocyte-adapted version of PfCRT^Dd2 was used[22] (Supplementary Fig. 16). The resulting DNA fragment was cloned into the SP64T expression vector and verified by sequencing.
Oocytes were obtained as described previously. Briefly, adult (>2 years old) female X. laevis frogs (NASCO) were anesthetized in a cooled solution of ethyl 3-amino benzoate methanesulfonate (0.1%, w/v), followed by a surgical removal of parts of the ovary. The ovary lobes were carefully dissected and small pieces of oocytes were incubated in Ca^2+-free ND96 buffer (96 mM NaCl, 2 mM KCl, 1 mM MgCl2 buffered with 5 mM HEPES/NaOH, pH 7.5) supplemented with collagenase D (0.1%, w/v; Roche), BSA (0.5%, w/v), and 9 mm Na2HPO4 at 18 °C for 14-16 h while gentle shaking. After incubation, the oocytes were carefully washed several times with ND96 buffer (96 mM NaCl, 2 mM KCl, 1.8 mM CaCl2, 1 mM MgCl2 buffered with 5 mM HEPES/NaOH, pH 7.5) supplemented with 100 mg l^−1 gentamycin). Defolliculated and healthy-looking stage V-VI oocytes were manually selected for RNA microinjection. The RNA was generated as following: The codon-optimized sequences of PfCRT variants were cloned into the pSP64T expression vector. After vector linearization using the restriction endonucleases BamHI or SalI (New England Biolabs), transcription was performed using the in vitro SP6 mMessage mMachine Kit (Ambion)[34]. The obtained RNA was kept at −80 °C and diluted with nuclease-free water to a concentration of 0.6 μg μl^−1. Precision-bore glass capillary tubes (3.5-inch glass capillaries; Drummond Scientific Co.) were pulled on a vertical puller (P-87 Flaming/Brown micropipette puller, Sutter Instrument Co.), graduated, and placed on a microinjector (Nanoject II Auto-Nanoliter Injector, Drummond Scientific Co.). 50 nl of nuclease-free water alone (control oocytes) or 50 nl of 0.6 μg μl^−1 RNA were injected under stereomicroscopic control. Injected oocytes were incubated for 46–72 h at 18 °C with twice-daily buffer changes before usage in experiments.
Drug uptake assays were performed as described previously[21],[22],[24],[34]. […] The direction of radio-labeled drug transport is here from the mostly acidic extracellular solution (pH 4.5 or 6.0, as indicated) into the oocyte cytosol (pH ∼ 7.2), which corresponds to the efflux of drug from the acidic digestive vacuole (pH 5.2) into the parasite cytoplasm (pH 7.2). The topology of PfCRT in the oolemma is such that both the N- and C-terminus face the extracellular milieu[3],[22]. In the parasite, the N- and C-terminus face the lumen of the digestive vacuole. […] For determination of the amount of drug uptake for each oocyte, the reaction medium was removed and the oocytes were washed three times with 2 ml of ice-cold ND96 buffer. Each oocyte was individually transferred to a scintillation vial containing 5% sodium dodecyl sulfate (200 μl) for lysis. […] Oocytes that were injected with water instead of RNA were analyzed in parallel, representing the uptake of a drug by diffusion and/or endogenous permeation pathways. […] The specific PfCRT-mediated uptake was determined by subtracting the corresponding background value measured in water-injected oocytes from that of PfCRT-expressing oocytes. […]

CCN(CC)CCCC(C)Nc1ccnc2cc(Cl)ccc12 (centres unmarked) [CQ, chloroquine]
Activity at pH 4.5 (E232A, 50 µM CQ, 1 h, mean ± SEM): 1.07 ± 0.12 pmol h-1 oocyte-1
R-value (E232A, CQ transport at pH 4.5 / pH 6.0): 0.65 ± 0.06
E232A transport activity pH 4.5 (pH 4.5, single replicates, Fig 1d left): 1.05 pmol oocyte-1 h-1 and 1.32 pmol oocyte-1 h-1 and 1.01 pmol oocyte-1 h-1 and 0.62 pmol oocyte-1 h-1 and 1.37 pmol oocyte-1 h-1
E232A R-value (pH 4.5 vs pH 6.0, Fig 1d left): 0.65 and 0.81 and 0.48 and 0.80
E232A transport activity pH 6.0 (pH 6.0, single replicates, Fig 1d left): 1.62 pmol oocyte-1 h-1 and 1.63 pmol oocyte-1 h-1 and 2.09 pmol oocyte-1 h-1 and 1.28 pmol oocyte-1 h-1 and 1.71 pmol oocyte-1 h-1
